Assays:
Test in all cases: KinaseProfiler panel
Assay type in all cases: biochemical
Set-up in all cases: dose or concentration left out as unconfirmed
Conditions in all cases: activity remaining
CDK14/cyclinY(h) = CDK14/cyclinY(h) (Homo sapiens (Human), UniProt O94921)
IR(h), activated = IR(h), activated (Homo sapiens (Human), UniProt P06213)
JAK2(h) = JAK2(h) (Homo sapiens (Human), UniProt O60674)
CK1ε(h) = CK1ε(h) (Homo sapiens (Human), UniProt P49674)
NEK9(h) = NEK9(h) (Homo sapiens (Human), UniProt Q8TD19)
PAK3(h) = PAK3(h) (Homo sapiens (Human), UniProt O75914)
HPK1(h) = HPK1(h) (Homo sapiens (Human), UniProt Q92918)
EphB4(h) = EphB4(h) (Homo sapiens (Human), UniProt P54760)
MKK6(h) = MKK6(h) (Homo sapiens (Human), UniProt P52564)
CaMKIδ(h) = CaMKIδ(h) (Homo sapiens (Human), UniProt Q8IU85)
PKD2(h) = PKD2(h) (Homo sapiens (Human), UniProt Q9BZL6)
WNK2(h) = WNK2(h) (Homo sapiens (Human), UniProt Q9Y3S1)

EphB4(h), sequence (P54760 16-987): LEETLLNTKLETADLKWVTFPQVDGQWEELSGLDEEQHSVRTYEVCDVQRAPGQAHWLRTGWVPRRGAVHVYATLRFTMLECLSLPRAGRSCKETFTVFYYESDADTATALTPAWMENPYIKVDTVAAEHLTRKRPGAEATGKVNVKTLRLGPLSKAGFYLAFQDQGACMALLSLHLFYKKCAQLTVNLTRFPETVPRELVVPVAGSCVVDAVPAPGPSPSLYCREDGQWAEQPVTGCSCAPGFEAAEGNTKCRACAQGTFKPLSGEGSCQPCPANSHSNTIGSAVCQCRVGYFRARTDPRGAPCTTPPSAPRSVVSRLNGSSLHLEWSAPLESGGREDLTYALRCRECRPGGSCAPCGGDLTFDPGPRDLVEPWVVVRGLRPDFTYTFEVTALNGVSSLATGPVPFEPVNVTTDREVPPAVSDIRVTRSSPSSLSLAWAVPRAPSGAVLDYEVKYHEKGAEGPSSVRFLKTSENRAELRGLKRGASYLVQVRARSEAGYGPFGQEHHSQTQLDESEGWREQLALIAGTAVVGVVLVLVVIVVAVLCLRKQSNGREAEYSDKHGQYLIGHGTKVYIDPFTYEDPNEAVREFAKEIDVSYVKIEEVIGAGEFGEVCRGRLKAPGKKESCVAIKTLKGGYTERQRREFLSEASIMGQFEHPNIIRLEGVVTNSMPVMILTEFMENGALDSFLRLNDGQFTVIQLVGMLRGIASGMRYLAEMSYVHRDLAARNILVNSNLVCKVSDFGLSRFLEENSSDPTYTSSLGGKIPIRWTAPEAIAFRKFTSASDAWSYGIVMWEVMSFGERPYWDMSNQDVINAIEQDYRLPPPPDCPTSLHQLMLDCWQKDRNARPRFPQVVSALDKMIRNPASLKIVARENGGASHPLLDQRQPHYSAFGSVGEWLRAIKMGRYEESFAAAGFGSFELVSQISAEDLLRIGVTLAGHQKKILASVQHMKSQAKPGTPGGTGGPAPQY
JAK2(h), sequence (O60674 whole entry): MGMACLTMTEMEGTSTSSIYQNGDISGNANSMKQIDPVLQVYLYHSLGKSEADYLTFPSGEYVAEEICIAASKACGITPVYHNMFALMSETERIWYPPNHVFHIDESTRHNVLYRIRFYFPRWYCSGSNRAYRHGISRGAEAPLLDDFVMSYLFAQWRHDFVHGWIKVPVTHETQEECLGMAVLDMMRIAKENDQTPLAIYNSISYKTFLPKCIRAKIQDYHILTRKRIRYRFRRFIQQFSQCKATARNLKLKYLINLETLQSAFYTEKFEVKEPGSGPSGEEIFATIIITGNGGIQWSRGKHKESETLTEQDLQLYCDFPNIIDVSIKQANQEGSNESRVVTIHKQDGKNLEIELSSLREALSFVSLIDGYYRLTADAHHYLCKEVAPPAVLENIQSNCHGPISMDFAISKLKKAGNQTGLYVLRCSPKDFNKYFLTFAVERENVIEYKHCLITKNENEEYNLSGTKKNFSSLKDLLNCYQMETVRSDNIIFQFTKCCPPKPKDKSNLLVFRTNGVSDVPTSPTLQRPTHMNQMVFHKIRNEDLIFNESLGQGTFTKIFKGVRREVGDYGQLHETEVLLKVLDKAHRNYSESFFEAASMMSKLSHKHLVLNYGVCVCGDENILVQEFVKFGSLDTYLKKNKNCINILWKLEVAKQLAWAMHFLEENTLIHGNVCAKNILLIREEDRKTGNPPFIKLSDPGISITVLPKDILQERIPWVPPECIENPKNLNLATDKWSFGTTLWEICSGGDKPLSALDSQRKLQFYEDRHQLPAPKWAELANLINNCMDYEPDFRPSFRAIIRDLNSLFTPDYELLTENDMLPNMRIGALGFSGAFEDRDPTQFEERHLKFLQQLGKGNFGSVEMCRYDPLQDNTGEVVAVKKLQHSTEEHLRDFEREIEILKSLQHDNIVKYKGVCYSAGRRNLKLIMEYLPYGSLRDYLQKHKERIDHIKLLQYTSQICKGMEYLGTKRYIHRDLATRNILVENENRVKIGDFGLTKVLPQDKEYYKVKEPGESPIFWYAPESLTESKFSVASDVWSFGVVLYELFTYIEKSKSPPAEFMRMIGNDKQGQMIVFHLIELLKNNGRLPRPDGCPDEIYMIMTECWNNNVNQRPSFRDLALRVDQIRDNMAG
PKD2(h), sequence (Q9BZL6 whole entry): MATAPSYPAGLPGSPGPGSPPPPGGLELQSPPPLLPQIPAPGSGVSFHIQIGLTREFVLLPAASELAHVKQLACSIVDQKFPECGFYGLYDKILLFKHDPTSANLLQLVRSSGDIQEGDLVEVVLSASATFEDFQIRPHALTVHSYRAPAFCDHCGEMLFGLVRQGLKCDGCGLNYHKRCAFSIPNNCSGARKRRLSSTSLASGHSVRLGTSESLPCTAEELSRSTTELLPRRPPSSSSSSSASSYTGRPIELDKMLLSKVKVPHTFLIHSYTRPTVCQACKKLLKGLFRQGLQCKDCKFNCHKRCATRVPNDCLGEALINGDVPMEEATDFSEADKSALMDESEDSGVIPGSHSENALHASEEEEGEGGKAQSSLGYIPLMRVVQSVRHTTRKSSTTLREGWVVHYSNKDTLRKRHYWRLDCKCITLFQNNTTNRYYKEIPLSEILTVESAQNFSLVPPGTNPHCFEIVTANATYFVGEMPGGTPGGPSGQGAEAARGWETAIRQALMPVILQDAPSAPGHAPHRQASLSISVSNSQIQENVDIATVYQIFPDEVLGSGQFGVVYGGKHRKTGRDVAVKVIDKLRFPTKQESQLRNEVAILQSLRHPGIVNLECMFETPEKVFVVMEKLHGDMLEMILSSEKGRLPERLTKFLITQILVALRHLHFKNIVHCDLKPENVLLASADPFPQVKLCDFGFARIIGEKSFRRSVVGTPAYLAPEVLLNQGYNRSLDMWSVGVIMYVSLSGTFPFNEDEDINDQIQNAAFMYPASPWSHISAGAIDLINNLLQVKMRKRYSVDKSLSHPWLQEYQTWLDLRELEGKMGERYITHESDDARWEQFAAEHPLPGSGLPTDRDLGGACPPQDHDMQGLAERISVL
IR(h), activated, sequence (P06213 28-1382): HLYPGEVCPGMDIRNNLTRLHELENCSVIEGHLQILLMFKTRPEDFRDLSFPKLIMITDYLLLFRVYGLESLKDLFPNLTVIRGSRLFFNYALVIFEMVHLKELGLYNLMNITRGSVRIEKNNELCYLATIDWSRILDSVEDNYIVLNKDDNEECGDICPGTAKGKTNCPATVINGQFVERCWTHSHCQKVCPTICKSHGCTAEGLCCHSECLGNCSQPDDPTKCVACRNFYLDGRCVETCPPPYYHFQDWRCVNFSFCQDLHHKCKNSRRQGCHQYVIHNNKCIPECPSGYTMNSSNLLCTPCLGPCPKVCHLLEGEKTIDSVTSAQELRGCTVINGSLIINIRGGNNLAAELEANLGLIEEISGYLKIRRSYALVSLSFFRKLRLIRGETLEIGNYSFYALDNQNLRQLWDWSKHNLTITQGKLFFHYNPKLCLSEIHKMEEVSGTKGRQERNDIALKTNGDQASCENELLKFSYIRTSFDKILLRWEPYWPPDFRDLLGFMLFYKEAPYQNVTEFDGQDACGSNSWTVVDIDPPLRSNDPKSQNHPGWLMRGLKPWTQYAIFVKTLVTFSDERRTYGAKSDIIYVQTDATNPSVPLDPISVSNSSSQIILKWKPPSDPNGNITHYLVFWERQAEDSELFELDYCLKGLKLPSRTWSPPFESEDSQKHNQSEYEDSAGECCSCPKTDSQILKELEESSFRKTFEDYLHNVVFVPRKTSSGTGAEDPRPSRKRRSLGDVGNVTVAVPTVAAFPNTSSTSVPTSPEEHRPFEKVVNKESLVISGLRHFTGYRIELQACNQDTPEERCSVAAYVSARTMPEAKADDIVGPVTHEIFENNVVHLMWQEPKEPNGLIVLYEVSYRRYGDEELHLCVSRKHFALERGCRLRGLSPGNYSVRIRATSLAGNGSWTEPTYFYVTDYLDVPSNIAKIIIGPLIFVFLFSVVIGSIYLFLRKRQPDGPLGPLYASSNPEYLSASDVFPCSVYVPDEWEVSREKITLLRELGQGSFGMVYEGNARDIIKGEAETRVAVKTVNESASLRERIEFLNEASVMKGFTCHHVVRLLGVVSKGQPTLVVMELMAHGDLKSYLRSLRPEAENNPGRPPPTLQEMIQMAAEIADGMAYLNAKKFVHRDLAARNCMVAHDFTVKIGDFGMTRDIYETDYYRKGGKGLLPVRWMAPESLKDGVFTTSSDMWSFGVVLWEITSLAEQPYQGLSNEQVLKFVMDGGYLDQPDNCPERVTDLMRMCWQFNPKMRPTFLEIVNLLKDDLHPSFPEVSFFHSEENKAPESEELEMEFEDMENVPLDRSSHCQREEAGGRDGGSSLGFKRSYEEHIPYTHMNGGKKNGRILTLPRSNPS
CaMKIδ(h), sequence (Q8IU85 whole entry): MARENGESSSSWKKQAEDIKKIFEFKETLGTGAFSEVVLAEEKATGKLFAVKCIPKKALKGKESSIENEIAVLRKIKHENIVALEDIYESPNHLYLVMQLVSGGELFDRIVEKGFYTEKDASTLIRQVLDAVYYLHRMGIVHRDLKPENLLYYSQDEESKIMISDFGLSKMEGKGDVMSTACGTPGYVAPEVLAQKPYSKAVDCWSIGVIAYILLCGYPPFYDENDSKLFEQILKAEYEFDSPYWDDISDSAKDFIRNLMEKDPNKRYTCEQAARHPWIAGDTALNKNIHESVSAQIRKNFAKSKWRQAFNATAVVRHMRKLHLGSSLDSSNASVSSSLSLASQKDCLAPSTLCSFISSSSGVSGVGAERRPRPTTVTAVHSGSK
MKK6(h), sequence (P52564 whole entry): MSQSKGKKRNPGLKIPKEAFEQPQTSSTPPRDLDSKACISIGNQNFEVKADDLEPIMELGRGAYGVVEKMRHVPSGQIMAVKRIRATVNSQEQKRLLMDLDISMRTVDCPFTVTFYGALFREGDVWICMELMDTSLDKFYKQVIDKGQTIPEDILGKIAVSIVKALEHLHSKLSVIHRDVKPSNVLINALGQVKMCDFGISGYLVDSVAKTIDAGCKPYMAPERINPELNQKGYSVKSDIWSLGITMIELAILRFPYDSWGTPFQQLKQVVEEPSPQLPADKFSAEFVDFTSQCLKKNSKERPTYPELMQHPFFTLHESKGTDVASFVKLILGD

In the case of `Cc1cc2c(-c3ccc(NC(=O)[C@H](N)CC(C)(C)C)cc3C)ccnc2[nH]1` [Compound F-90, (2R)-2-Amino-4,4-dimethyl-N-[3-methyl-4-(2-methyl-1H-pyrrolo[2,3-b]pyridin-4-yl)phenyl]pentanamide], the “% Activity” value (CDK14/cyclinY(h)) is reported as 91%, the “% Activity” value (IR(h), activated) is reported as 92% and the “% Activity” value (JAK2(h)) is reported as 104%. The “% Activity” value (CK1ε(h)) was 96%, the “% Activity” value (NEK9(h)) was 79% and the “% Activity” value (PAK3(h)) was 89%. The “% Activity” value (HPK1(h)) was 73%, the “% Activity” value (EphB4(h)) was 107% and the “% Activity” value (MKK6(h)) was 101%. The “% Activity” value (CaMKIδ(h)) was 89%, the “% Activity” value (PKD2(h)) was 95% and the “% Activity” value (WNK2(h)) was 94%.

Source: US20250243196A1, “CITRON KINASE INHIBITORS” (The Cleveland Clinic Foundation, priority 2021, published 2025)
